Data published in patent US9447053B2, “Process for the preparation of calcobutrol” (Bayer Intellectual Property GMBH, priority 2009, dated 2016).

Legend:
[1] = pH-potentiometric equilibrium titrations of the ligand (butrol) in the presence of Ca2+ ions; format: physicochemical
Procedure: The thermodynamic stability constant of Calcobutrol and the acid dissociation constant have been determined by pH-potentiometric equilibrium titrations of the ligand (butrol) in the presence of Ca^2+ ions (at 25° C., in 0.1 N KCl) at different ratios of Ca^2+:ligand.
Based on these measured values, the distribution of calcium between free calcium ion, neutral complex (Calcobutrol, ligand has two negative charges), and anionic complex (ligand has three negative charges) can be calculated for different pH values. […] Due to this equilibrium between the calcium-containing species, preparative methods in aqueous solution will lead to some impurities.

[2] = Properties of the Calcobutrol product and of Gadovist solutions prepared from it; format: physicochemical; conditions: product of the process
Excerpt: The Calcobutrol prepared in this manner is characterised by a very high quality. […] The whole process, from Gadobutrol to Calcobutrol, is characterised by a high reproducibility and workability. The total yield of 91.2% is very good. […] The sodium salt of Calcobutrol is obtained through addition of a stoichiometric amount of sodium hydroxide in situ.

SMILES: O=C([O-])CN1CCN(CC(=O)[O-])CCN(C(CO)C(O)CO)CCN(CC(=O)[O-])CC1.O=C([O-])CN1CCN(CC(=O)[O-])CCN(C(CO)C(O)CO)CCN(CC(=O)[O-])CC1.[Ca+2].[Ca+2].[Ca+2] (centres unmarked) [Calcobutrol, calcium complex of 10-(2,3-Dihydroxy-1-(hydroxymethyl)propyl)-1,4,7,10-tetraazacyclodecane-1,4,7-triacetic acid]
- thermodynamic stability constant log(KCaL-) ([1]; 25° C., 0.1 N KCl, different ratios of Ca2+:ligand, KCaL-=[CaL-]/[Ca2+][L3-]): 14.67±0.02
- acid dissociation constant pKa ([1]; 25° C., 0.1 N KCl, Ka=[CaL-][H+]/[CaLH]): 3.39±0.12
- share of neutral complex among the calcium-containing species ([1]; calculated from measured constants, at any pH (FIG. 1)): ≤ 20%
- solubility in water [2]: soluble in water
- storage stability [2]: stable for storage
